In patent publication US6737383B1, “Herbicidal oxadiazolidines” (priority 1999, dated 2004):

How the values were obtained:
giant foxtail = experiment: Test B pre/postemergence giant foxtail; format: in vivo, Setaria faberii
How it was run: (§1)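 Test chemicals in a non-phytotoxic solvent mixture with surfactant were sprayed preemergence onto planted seeds and postemergence onto plants 2 to 18 cm tall (1- to 4-leaf stage). After twelve to sixteen days in a greenhouse, injury was visually rated against untreated controls from 0 (no effect) to 10 (complete control).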

crabgrass = experiment: Test B pre/postemergence crabgrass; format: in vivo, Digitaria sanguinalis
How it was run: as §1

bedstraw = experiment: Test B pre/postemergence bedstraw; format: in vivo, Galium aparine
How it was run: as §1

sugar beet = experiment: Test B pre/postemergence sugar beet; format: in vivo, Beta vulgaris
How it was run: as §1

purple nutsedge = experiment: Test B pre/postemergence purple nutsedge; format: in vivo, Cyperus rotundus
How it was run: as §1

rape = experiment: Test B pre/postemergence rape; format: in vivo, Brassica napus
How it was run: as §1

velvetleaf = experiment: Test B pre/postemergence velvetleaf; format: in vivo, Abutilon theophrasti
How it was run: as §1

wild oat = experiment: Test B pre/postemergence wild oat; format: in vivo, Avena fatua
How it was run: as §1

morningglory = experiment: Test B pre/postemergence morningglory; format: in vivo, Ipomoea hederacea
How it was run: as §1

wheat = experiment: Test B pre/postemergence wheat; format: in vivo, Triticum aestivum
How it was run: as §1

soybean = experiment: Test B pre/postemergence soybean; format: in vivo, Glycine max
How it was run: as §1

blackgrass = experiment: Test B pre/postemergence blackgrass; format: in vivo, Alopecurus myosuroides
How it was run: as §1

surinam grass = experiment: Test B pre/postemergence surinam grass; format: in vivo, Brachiaria decumbens
How it was run: as §1

bamyardgrass = experiment: Test B flood test barnyardgrass; format: in vivo, Echinochloa crus-galli
How it was run: (§2)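 Plants were grown to the 2-leaf stage before treatment with test chemical, then held in a greenhouse for twelve to sixteen days. Injury was visually rated against untreated controls on a 0–10 scale, where 0 is no effect and 10 is complete control.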

duck salad = experiment: Test B flood test duck salad; format: in vivo, Heteranthera limosa
How it was run: as §2

corn = experiment: Test B pre/postemergence corn; format: in vivo, Zea mays
How it was run: as §1

smallflower flatsedge = experiment: Test B flood test smallflower flatsedge; format: in vivo, Cyperus difformis
How it was run: as §2

pigweed = experiment: Test B pre/postemergence pigweed; format: in vivo, Amaranthus retroflexus
How it was run: as §1

cocklebur = experiment: Test B pre/postemergence cocklebur; format: in vivo, Xanthium strumarium
How it was run: as §1

[1] = Preemergence, Rate 62 g/ha, scale of 0 to 10 where 0 is no effect and 10 is complete control
[2] = Preemergence, Rate 125 g/ha, scale of 0 to 10 where 0 is no effect and 10 is complete control
[3] = Preemergence, Rate 250 g/ha, scale 0 to 10 (0 no effect, 10 complete control)
[4] = Preemergence, Rate 500 g/ha, scale of 0 to 10 where 0 is no effect and 10 is complete control
[5] = Rate 62 g/ha, flood test species, Pre-emergence, visual evaluation after twelve to sixteen days
[6] = Rate 125 g/ha, under heading Pre-emergence, flood test species, visual evaluation after twelve to sixteen days
[7] = Rate 250 g/ha, Pre-emergence (flood test species), scale 0 to 10, 0 is no effect, 10 is complete control
[8] = Rate 500 g/ha, Pre-emergence section of Table B, 0 to 10 scale (0 no effect, 10 complete control)
[9] = Postemergence, Rate 62 g/ha, scale of 0 to 10, 0 is no effect, 10 is complete control
[10] = Postemergence, Rate 125 g/ha, scale 0 to 10, 0 is no effect, 10 is complete control
[11] = Postemergence, Rate 500 g/ha, scale 0 to 10, 0 is no effect, 10 is complete control
[12] = Preemergence, Rate 62 g/ha, scale 0 to 10 (0 no effect, 10 complete control)
[13] = Preemergence, Rate 125 g/ha, scale 0 to 10, 0 is no effect, 10 is complete control
[14] = Rate 250 g/ha, Postemergence, scale of 0 to 10 where 0 is no effect and 10 is complete control

CC(C)N(C(=O)n1oc(=O)n(C(C)C2CCC2)c1=O)c1ccc(Cl)cc1 (stereo not shown) [Compound 701]
Giant foxtail plant response rating (giant foxtail; [1]): 6 | Plant response rating, Giant foxtail (giant foxtail; [2]): 10 | Crabgrass plant response rating (crabgrass; [1]): 0 | Plant response rating, Crabgrass (crabgrass; [2]): 10 | Plant response rating, Crabgrass (crabgrass; [3]): 10 | Bedstraw plant response rating (bedstraw; [1]): 0 | Plant response rating, Bedstraw (bedstraw; [2]): 0 | Plant response rating, Bedstraw (bedstraw; [3]): 0 | Plant response rating, Bedstraw (bedstraw; [4]): 0 | Sugarbeets plant response rating (sugar beet; [1]): 0 | Plant response rating, Sugarbeets (sugar beet; [2]): 0 | Nutsedge plant response rating (purple nutsedge; [1]): 0 | Rape plant response rating (rape; [1]): 0 | Plant response rating, Rape (rape; [2]): 0 | Velvetleaf plant response rating (velvetleaf; [1]): 0 | Plant response rating, Velvetleaf (velvetleaf; [2]): 0 | Wild oats plant response rating (wild oat; [1]): 0 | Plant response rating, Wild oats (wild oat; [2]): 0 | Morningglory plant response rating (morningglory; [1]): 0 | Plant response rating, Morningglory (morningglory; [2]): 0 | Wheat plant response rating (wheat; [1]): 0 | Plant response rating, Wheat (wheat; [2]): 0 | Soybean plant response rating (soybean; [1]): 0 | Plant response rating, Soybean (soybean; [2]): 0 | Blackgrass plant response rating (blackgrass; [1]): 0 | Plant response rating, Blackgrass (blackgrass; [2]): 2 | Plant response rating, Blackgrass (blackgrass; [3]): 2 | Plant response rating, Blackgrass (blackgrass; [4]): 6 | B. signalgrass plant response rating (surinam grass; [1]): 0 | Plant response rating, B. signalgrass (surinam grass; [2]): 0 | Plant response rating, B. signalgrass (surinam grass; [3]): 0 | Plant response rating, B. signalgrass (surinam grass; [4]): 0 | Plant response rating, Barnyardgrass (0 to 10 scale, 0 is no effect, 10 is complete control) (bamyardgrass; [5]): 0 | Barnyardgrass plant response rating (0 to 10 scale, 0 is no effect, 10 is complete control) (bamyardgrass; [6]): 0 | Barnyardgrass plant response rating (bamyardgrass; [7]): 0 | Barnyardgrass plant response rating (bamyardgrass; [8]): 0 | Plant response rating, Ducksalad (0 to 10 scale, 0 is no effect, 10 is complete control) (duck salad; [5]): 0 | Ducksalad plant response rating (0 to 10 scale, 0 is no effect, 10 is complete control) (duck salad; [6]): 0 | Ducksalad plant response rating (duck salad; [7]): 0 | Ducksalad plant response rating (duck salad; [8]): 3 | Corn plant response rating (corn; [1]): 0 | Plant response rating, Corn (corn; [2]): 0 | Plant response rating, Corn (corn; [3]): 0 | Plant response rating, S. Flatsedge (0 to 10 scale, 0 is no effect, 10 is complete control) (smallflower flatsedge; [5]): 0 | S. Flatsedge plant response rating (0 to 10 scale, 0 is no effect, 10 is complete control) (smallflower flatsedge; [6]): 0 | S. Flatsedge plant response rating (smallflower flatsedge; [7]): 0 | S. Flatsedge plant response rating (smallflower flatsedge; [8]): 0 | Redroot pigweed plant response rating (pigweed; [1]): 0 | Plant response rating, Redroot pigweed (pigweed; [2]): 0 | Cocklebur plant response rating (cocklebur; [1]): 0 | Plant response rating, Cocklebur (cocklebur; [2]): 0 | Plant response rating, Cocklebur (cocklebur; [3]): 0 | Plant response rating, Cocklebur (cocklebur; [4]): 0

CC(C)=CCn1c(=O)on(C(=O)N(c2ccc(Cl)cc2)C(C)C)c1=O [Compound 545]
Giant foxtail plant response rating (giant foxtail; [9]): 0 | Giant foxtail plant response rating (giant foxtail; [10]): 0 | Plant response rating, Giant foxtail (giant foxtail; [11]): 5 | Giant foxtail plant response rating (giant foxtail; [12]): 10 | Giant foxtail plant response rating (giant foxtail; [13]): 10 | Giant foxtail plant response rating (0 to 10 scale) (giant foxtail; Preemergence, Rate 250 g/ha): 10 | Giant foxtail plant response rating (giant foxtail; [4]): 10 | Plant response rating, Giant foxtail (giant foxtail; [14]): 3 | Crabgrass plant response rating (crabgrass; [9]): 0 | Crabgrass plant response rating (crabgrass; [10]): 2 | Plant response rating, Crabgrass (crabgrass; [11]): 9 | Crabgrass plant response rating (crabgrass; [12]): 8 | Crabgrass plant response rating (crabgrass; [13]): 10 | Crabgrass plant response rating (0 to 10 scale) (crabgrass; Preemergence, Rate 250 g/ha): 10 | Crabgrass plant response rating (crabgrass; [4]): 10 | Plant response rating, Crabgrass (crabgrass; [14]): 3 | Bedstraw plant response rating (bedstraw; [9]): 0 | Bedstraw plant response rating (bedstraw; [10]): 0 | Plant response rating, Bedstraw (bedstraw; [11]): 7 | Bedstraw plant response rating (bedstraw; [12]): 0 | Bedstraw plant response rating (bedstraw; [13]): 0 | Bedstraw plant response rating (0 to 10 scale) (bedstraw; Preemergence, Rate 250 g/ha): 0 | Bedstraw plant response rating (bedstraw; [4]): 10 | Plant response rating, Bedstraw (bedstraw; [14]): 2 | Sugarbeets plant response rating (sugar beet; [9]): 0 | Sugarbeets plant response rating (sugar beet; [10]): 0 | Plant response rating, Sugarbeets (sugar beet; [11]): 3 | Sugarbeets plant response rating (sugar beet; [12]): 0 | Sugarbeets plant response rating (sugar beet; [13]): 0 | Sugarbeets plant response rating (0 to 10 scale) (sugar beet; Preemergence, Rate 250 g/ha): 2 | Sugarbeets plant response rating (sugar beet; [4]): 6 | Plant response rating, Sugarbeets (sugar beet; [14]): 0 | Nutsedge plant response rating (purple nutsedge; [9]): 0 | Nutsedge plant response rating (purple nutsedge; [12]): 0 | Nutsedge plant response rating (purple nutsedge; [13]): 0 | Nutsedge plant response rating (0 to 10 scale) (purple nutsedge; Preemergence, Rate 250 g/ha): 0 | Nutsedge plant response rating (purple nutsedge; [4]): 0 | Rape plant response rating (rape; [9]): 0 | Rape plant response rating (rape; [10]): 0 | Plant response rating, Rape (rape; [11]): 3 | Rape plant response rating (rape; [12]): 0 | Rape plant response rating (rape; [13]): 0 | Rape plant response rating (0 to 10 scale) (rape; Preemergence, Rate 250 g/ha): 0 | Rape plant response rating (rape; [4]): 2 | Plant response rating, Rape (rape; [14]): 0 | Velvetleaf plant response rating (velvetleaf; [9]): 0 | Velvetleaf plant response rating (velvetleaf; [10]): 3 | Velvetleaf plant response rating (velvetleaf; [12]): 0 | Velvetleaf plant response rating (velvetleaf; [13]): 0 | Velvetleaf plant response rating (0 to 10 scale) (velvetleaf; Preemergence, Rate 250 g/ha): 0 | Velvetleaf plant response rating (velvetleaf; [4]): 0 | Plant response rating, Velvetleaf (velvetleaf; [14]): 6 | Wild oats plant response rating (wild oat; [9]): 0 | Wild oats plant response rating (wild oat; [10]): 0 | Plant response rating, Wild oats (wild oat; [11]): 0 | Wild oats plant response rating (wild oat; [12]): 0 | Wild oats plant response rating (wild oat; [13]): 0 | Wild oats plant response rating (0 to 10 scale) (wild oat; Preemergence, Rate 250 g/ha): 2 | Wild oats plant response rating (wild oat; [4]): 6 | Plant response rating, Wild oats (wild oat; [14]): 0 | Morningglory plant response rating (morningglory; [9]): 4 | Morningglory plant response rating (morningglory; [10]): 4 | Morningglory plant response rating (morningglory; [12]): 0 | Morningglory plant response rating (morningglory; [13]): 0 | Morningglory plant response rating (0 to 10 scale) (morningglory; Preemergence, Rate 250 g/ha): 0 | Morningglory plant response rating (morningglory; [4]): 8 | Plant response rating, Morningglory (morningglory; [14]): 10 | Wheat plant response rating (wheat; [9]): 0 | Wheat plant response rating (wheat; [10]): 0 | Plant response rating, Wheat (wheat; [11]): 0 | Wheat plant response rating (wheat; [12]): 0 | Wheat plant response rating (wheat; [13]): 0 | Wheat plant response rating (0 to 10 scale) (wheat; Preemergence, Rate 250 g/ha): 0 | Wheat plant response rating (wheat; [4]): 2 | Plant response rating, Wheat (wheat; [14]): 0 | Soybean plant response rating (soybean; [9]): 1 | Soybean plant response rating (soybean; [10]): 1 | Plant response rating, Soybean (soybean; [11]): 2 | Soybean plant response rating (soybean; [12]): 0 | Soybean plant response rating (soybean; [13]): 0 | Soybean plant response rating (0 to 10 scale) (soybean; Preemergence, Rate 250 g/ha): 0 | Soybean plant response rating (soybean; [4]): 0 | Plant response rating, Soybean (soybean; [14]): 2 | Blackgrass plant response rating (blackgrass; [9]): 0 | Blackgrass plant response rating (blackgrass; [10]): 0 | Plant response rating, Blackgrass (blackgrass; [11]): 0 | Blackgrass plant response rating (blackgrass; [12]): 0 | Blackgrass plant response rating (blackgrass; [13]): 0 | Blackgrass plant response rating (0 to 10 scale) (blackgrass; Preemergence, Rate 250 g/ha): 2 | Blackgrass plant response rating (blackgrass; [4]): 9 | Plant response rating, Blackgrass (blackgrass; [14]): 0 | B. signalgrass plant response rating (surinam grass; [9]): 0 | B. signalgrass plant response rating (surinam grass; [10]): 0 | Plant response rating, B. signalgrass (surinam grass; [11]): 2 | B. signalgrass plant response rating (surinam grass; [12]): 0 | B. signalgrass plant response rating (surinam grass; [13]): 0 | B. signalgrass plant response rating (0 to 10 scale, 0 is no effect, 10 is complete control) (surinam grass; Preemergence, Rate 250 g/ha): 0 | B. signalgrass plant response rating (surinam grass; [4]): 5 | Plant response rating, B. signalgrass (surinam grass; [14]): 2 | Corn plant response rating (corn; [9]): 0 | Corn plant response rating (corn; [10]): 0 | Plant response rating, Corn (corn; [11]): 0 | Corn plant response rating (corn; [12]): 0 | Corn plant response rating (corn; [13]): 0 | Corn plant response rating (0 to 10 scale) (corn; Preemergence, Rate 250 g/ha): 0 | Corn plant response rating (corn; [4]): 0 | Plant response rating, Corn (corn; [14]): 0 | Redroot pigweed plant response rating (pigweed; [9]): 0 | Redroot pigweed plant response rating (pigweed; [10]): 0 | Plant response rating, Redroot pigweed (pigweed; [11]): 0 | Redroot pigweed plant response rating (pigweed; [12]): 3 | Redroot pigweed plant response rating (pigweed; [13]): 8 | Redroot pigweed plant response rating (0 to 10 scale) (pigweed; Preemergence, Rate 250 g/ha): 9 | Redroot pigweed plant response rating (pigweed; [4]): 10 | Plant response rating, Redroot pigweed (pigweed; [14]): 0 | Cocklebur plant response rating (cocklebur; [9]): 0 | Cocklebur plant response rating (cocklebur; [10]): 3 | Cocklebur plant response rating (cocklebur; [12]): 0 | Cocklebur plant response rating (cocklebur; [13]): 0 | Cocklebur plant response rating (0 to 10 scale) (cocklebur; Preemergence, Rate 250 g/ha): 0 | Cocklebur plant response rating (cocklebur; [4]): 0 | Plant response rating, Cocklebur (cocklebur; [14]): 8
